Several values for one entry are separate records, joined by “and”; a condition that tells them apart may be missing. Equal values may be shown once.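 Where inhibition never reached the appropriate level, the endpoint shown equals the highest concentration tested. Otherwise, values were interpolated linearly from a five-concentration, 48-hour dose response in 96-well plates. GI50 is the concentration that inhibits growth by half. The concentration for full growth arrest is given as TGI.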
tested on: MDA-MB-468 breast; experiment: NCI anticancer screen, dose series, 48 h

Row | SMILES | GI50 | TGI
1 | C=CC(C)c1cccc(C=O)c1O (configuration not stated) | 51.6 µM | > 100 µM
2 | ClC(Cl)c1nc(-c2ccccc2)n2nc(-c3ccccc3)cc2n1 | 0.287 µM | 1.25 µM
3 | COc1ccc(C2=C(c3cn(C)c4ccccc34)C(=O)OC2)cc1OC | 1.65 µM | > 100 µM
4 | O=C(NC1CCCCC1)OCc1c(COC(=O)NC2CCCCC2)c(-c2ccc(Cl)c(Cl)c2)n2c1CCC2 | 1.8 µM | 10.9 µM
5 | O=C(Nc1ccc(F)cc1F)c1cc(F)ccc1O | 2.6 µM | 7.88 µM
6 | CC(C)C[C@@H](NC(=O)[C@@H](Cc1ccccc1)NC(=O)c1cnccn1)B1Oc2ccc(C[C@H](NC(=O)[C@H](Cc3ccc4c(c3)OB([C@@H](CC(C)C)NC(=O)[C@@H](Cc3ccccc3)NC(=O)c3cnccn3)O4)NC(=O)[C@@H](N)CC3CCC4OB([C@@H](CC(C)C)NC(=O)[C@@H](CC5CCCCC5)NC(=O)C5CNCCN5)OC4C3)C(=O)NCCCC[C@@H]3NC(=O)[C@@H](Cc4ccccc4)NC(=O)[C@H](CC(=O)O)NC(=O)CNC(=O)[C@H](CCCNC(=N)N)NC3=O)cc2O1 (some centres not stated) | 0.00272 µM and < 0.0025 µM | 0.00722 µM and < 0.0025 µM
7 | COc1cc2c(cc1O)CC[C@@H]1[C@@H]2CC[C@]2(C)[C@@H](OCCCN(C)C)CC[C@@H]12 | 0.12 µM | 0.3 µM
8 | CCCC(=O)OCC1OC(n2cnc3c(=S)nc(N)[nH]c32)C(OC(=O)CCC)C1OC(=O)CCC (configuration not stated) | 0.332 µM | 2.67 µM
9 | N#C/C(=C1C=C/C(=N/O)C(Cl)=C/1)c1ccc(Cl)cc1 | 3 µM | 9.7 µM
10 | NC(=O)c1c(Br)n(C2OC(CO)C(O)C2O)c2ncnc(N)c12 (configuration not stated) | 0.437 µM | 2.36 µM
11 | C#C[C@@]1(O)[C@@H](CO)O[C@@H](n2cc(Br)c3c(N)ncnc32)[C@@H]1O | 0.115 µM | 0.352 µM
12 | Nc1ccccc1NC(=O)c1ccc(CNC(=O)OCc2cccnc2)cc1 | 0.412 µM | 2.05 µM
13 | CN1C[C@@H](c2ccc(Cl)cc2)[C@]2(NC(=S)N(c3ccc(F)c(Cl)c3)C2=O)[C@@]12C(=O)NC1C=CC(Cl)=C[C@H]12 (some centres not stated) | 3.38 µM | 12.9 µM
14 | CN1CCN(Cc2ccc(NC(=O)c3cncc(C#Cc4cnc5ccc(O[C@H]6CCOC6)nn45)c3)cc2C(F)(F)F)CC1 | 0.75 µM | 1.69 µM
15 | COc1cc(-c2nn(-c3ccc(NC(=O)NCCNS(=O)(=O)c4ccc(F)cc4)cc3)cc2-c2ccncc2)ccc1Cl | 0.323 µM | 1.28 µM
16 | CCN(Cc1ccccn1)c1ccc(CO)c(Cl)c1 | 0.127 µM | 0.331 µM
17 | Cc1ccc(-c2nc3nc(-c4ccc(Br)cc4)nc(N4CCCNCC4)c3o2)cc1 | 3.98 µM | 15.9 µM
18 | COc1ccc(OC)c(/C=C/C(=O)N/N=C/c2ccccc2)c1 | 1.96 µM | 6.47 µM
19 | O=c1nc(Nc2ccc([N+](=O)[O-])cc2O)sc2ccccc12 | 0.34 µM | 1.21 µM
20 | O=S(=O)(Nc1ccc(Cl)c(F)c1)c1ccc(-c2cnc(C3CC3)o2)cc1 | 0.187 µM | 0.998 µM
21 | CC(C)N(Cc1c(F)cccc1F)c1ccc(CO)c(Cl)c1 | 0.0187 µM | 0.0531 µM
22 | COC(=O)c1c(C)c2n(c1C)C(=O)C(c1ccccc1)=C2 | 4.88 µM | > 72.8 µM
23 | C/C=C/C1=CN2C(=O)c3cc(OC4OC(C)C(NC)C(C)(O)C4O)c(C)cc3N=C[C@@H]2C1 (some centres not stated) | 0.0107 µM | 0.0282 µM
24 | COc1cccc(/C=C2\COc3ccc(O)c(O)c3C2=O)c1 | 1.15 µM | 3.15 µM
25 | COc1ccc(C(=O)c2cc(OC)c(OC)c(OC)c2)cc1OC(=O)C(Cl)(Cl)Cl | 0.542 µM | –
26 | COc1ccc2c(c1)O/C(=C\c1ncc([N+](=O)[O-])n1C)C2=O | 1.33 µM | 3.72 µM
27 | CCn1nc(-c2ccc(C(=O)OC)cc2)nc2c(=O)n(C)c(=O)nc1-2 | 0.189 µM | 0.477 µM
28 | O=C1CCC/C=C\C[C@H]2C=CC(=O)/C2=C/C[C@H](CCc2cccc(C(F)(F)F)c2)O1 | 1.69 µM | 3.71 µM
29 | O=C1CCc2c(Oc3ccc4c(c3)[C@H]3[C@@H](O4)[C@@H]3c3nc4ccc(C(F)(F)F)cc4[nH]3)ccnc2N1 | 1.74 µM | 7.13 µM

Reference: PubChem BioAssay (NCI)
